Measured values taken from patent US20120270935A1, “FORMULATIONS” (priority 2009, published 2012).

Tested on: S. pyogenes ATCC 12344
Assay: MBC assay
Format: cell-based, Streptococcus pyogenes
Conditions: Mueller-Hinton broth pH 7.0
Text: (a) staphylococci. The Staphylococcus aureus strain used was ATCC 29213. S. aureus and other staphylococci are common causes of a wide range of skin, skin structure and wound infections; S. aureus is also known to exacerbate eczema. The ATCC 29213 strain is known to be susceptible to beta-lactam antibiotics such as methicillin. The Staphylococcus epidermidis strain used was NCTC 11047. Staph. epidermidis forms part of the resident flora of skin and is an opportunistic pathogen which can cause biofilms to grow for instance on plastic surgical implants such as catheters. Unless otherwise stated, the staphylococci were cultured and maintained on Mueller-Hinton Medium (agar and broth) at pH 7.2; cultures were incubated aerobically at 37° C. for 19-20 hours, at pH 7 (±0.2). (b) C. striatum NCTC 764. Corynebacterium striatum is closely related to organisms (aerobic diphtheroids of the genus Corynebacterium) that cause body odour. It was cultured and maintained on Mueller-Hinton medium (agar and broth). All cultures were incubated aerobically at 37° C. for 72 hours, at pH 7 (±0.2). (c) streptococci. The strains tested were S. mutans ATCC 25175 and S. pyogenes ATCC 12344. S. mutans is a Gram-positive, microaerophilic bacterium which plays a significant role in dental caries and in infective endocarditis. Streptococcus pyogenes is associated with skin, soft tissue, burn and wound infections. […]

CC(=O)c1c([O-])c(C)c([O-])c2c1OC1=CC(=O)C(C(C)=O)C(=O)C12C.[Cu+2] (stereo not shown) [Copper usnate, copper (II) usnate]
MBC: 0.98 µg/mL
